± gives the expanded uncertainty stated by the source.
Columns and labels:
[1] = 298.15 K; 101.33 kPa; Liquid; Vibrating tube method
[2] = refractive index (Na D-line) (dimensionless); conditions: 298.15 K; 101.33 kPa; Liquid; refractometer
[3] = excess molar enthalpy (molar enthalpy of mixing); xn = mol fraction of the nth substance listed; conditions: 298.15 K, 101 kPa, Liquid, Flow calorimetry

CC(Cl)CCl (stereo not given) [1,2-dichloropropane]
mass density [1]: 1148.95 ± 0.46 kg/m3
refractive index [2]: 1.43653 ± 0.00023

CCCCOCCOC(C)=O [2-butoxyethyl acetate]
mass density [1]: 935.12 ± 0.3 kg/m3
refractive index [2]: 1.41183 ± 0.00023

CCCCOCCOC(C)=O [2-butoxyethyl acetate] + CC(Cl)CCl
excess molar enthalpy ([3]; x2 = 0.0659): -0.0225 ± 0.000478 kcal/mol
excess molar enthalpy ([3]; x2 = 0.0985): -0.0299 ± 0.000502 kcal/mol
excess molar enthalpy ([3]; x2 = 0.1611): -0.0499 ± 0.000621 kcal/mol
excess molar enthalpy ([3]; x2 = 0.1911): -0.0545 ± 0.000645 kcal/mol
excess molar enthalpy ([3]; x2 = 0.2486): -0.0684 ± 0.000741 kcal/mol
excess molar enthalpy ([3]; x2 = 0.3032): -0.079 ± 0.000813 kcal/mol
excess molar enthalpy ([3]; x2 = 0.3549): -0.08791 ± 0.00086 kcal/mol
excess molar enthalpy ([3]; x2 = 0.4041): -0.09455 ± 0.000908 kcal/mol
excess molar enthalpy ([3]; x2 = 0.4509): -0.09775 ± 0.000932 kcal/mol
excess molar enthalpy ([3]; x2 = 0.4955): -0.1004 ± 0.000956 kcal/mol
excess molar enthalpy ([3]; x2 = 0.5585): -0.1023 ± 0.00098 kcal/mol
excess molar enthalpy ([3]; x2 = 0.5982): -0.1015 ± 0.00098 kcal/mol
excess molar enthalpy ([3]; x2 = 0.6545): -0.09778 ± 0.000932 kcal/mol
excess molar enthalpy ([3]; x2 = 0.7073): -0.0914 ± 0.000884 kcal/mol
excess molar enthalpy ([3]; x2 = 0.7568): -0.0831 ± 0.000837 kcal/mol
excess molar enthalpy ([3]; x2 = 0.8035): -0.0727 ± 0.000765 kcal/mol
excess molar enthalpy ([3]; x2 = 0.8615): -0.0569 ± 0.000669 kcal/mol
excess molar enthalpy ([3]; x2 = 0.9022): -0.0431 ± 0.000574 kcal/mol
excess molar enthalpy ([3]; x2 = 0.9531): -0.0226 ± 0.000478 kcal/mol

CCOCCOC(C)=O [2-ethoxyethyl ethanoate]
mass density [1]: 967.36 ± 1 kg/m3
refractive index [2]: 1.40311 ± 0.00042

CCOCCOC(C)=O [2-ethoxyethyl ethanoate] + CC(Cl)CCl
excess molar enthalpy ([3]; x2 = 0.0532): -0.0175 ± 0.000454 kcal/mol
excess molar enthalpy ([3]; x2 = 0.1067): -0.0303 ± 0.000502 kcal/mol
excess molar enthalpy ([3]; x2 = 0.1585): -0.0476 ± 0.000598 kcal/mol
excess molar enthalpy ([3]; x2 = 0.2088): -0.0594 ± 0.000669 kcal/mol
excess molar enthalpy ([3]; x2 = 0.2575): -0.0693 ± 0.000741 kcal/mol
excess molar enthalpy ([3]; x2 = 0.3049): -0.0772 ± 0.000789 kcal/mol
excess molar enthalpy ([3]; x2 = 0.351): -0.08413 ± 0.000837 kcal/mol
excess molar enthalpy ([3]; x2 = 0.3957): -0.08934 ± 0.000884 kcal/mol
excess molar enthalpy ([3]; x2 = 0.4605): -0.09474 ± 0.000908 kcal/mol
excess molar enthalpy ([3]; x2 = 0.5022): -0.09634 ± 0.000932 kcal/mol
excess molar enthalpy ([3]; x2 = 0.5428): -0.09677 ± 0.000932 kcal/mol
excess molar enthalpy ([3]; x2 = 0.6017): -0.09524 ± 0.000932 kcal/mol
excess molar enthalpy ([3]; x2 = 0.6583): -0.09261 ± 0.000908 kcal/mol
excess molar enthalpy ([3]; x2 = 0.6949): -0.08788 ± 0.00086 kcal/mol
excess molar enthalpy ([3]; x2 = 0.748): -0.0794 ± 0.000813 kcal/mol
excess molar enthalpy ([3]; x2 = 0.7991): -0.0688 ± 0.000741 kcal/mol
excess molar enthalpy ([3]; x2 = 0.8485): -0.0565 ± 0.000669 kcal/mol
excess molar enthalpy ([3]; x2 = 0.896): -0.0419 ± 0.000574 kcal/mol
excess molar enthalpy ([3]; x2 = 0.9569): -0.0198 ± 0.000454 kcal/mol

COCCOC(C)=O [2-methoxyethyl ethanoate]
mass density [1]: 999.76 ± 0.3 kg/m3
refractive index [2]: 1.39988 ± 0.00023

COCCOC(C)=O [2-methoxyethyl ethanoate] + CC(Cl)CCl
excess molar enthalpy ([3]; x2 = 0.0464): -0.0141 ± 0.00043 kcal/mol
excess molar enthalpy ([3]; x2 = 0.0936): -0.0253 ± 0.000478 kcal/mol
excess molar enthalpy ([3]; x2 = 0.1401): -0.0365 ± 0.00055 kcal/mol
excess molar enthalpy ([3]; x2 = 0.2084): -0.0512 ± 0.000621 kcal/mol
excess molar enthalpy ([3]; x2 = 0.253): -0.06 ± 0.000693 kcal/mol
excess molar enthalpy ([3]; x2 = 0.2969): -0.0674 ± 0.000717 kcal/mol
excess molar enthalpy ([3]; x2 = 0.3402): -0.0748 ± 0.000765 kcal/mol
excess molar enthalpy ([3]; x2 = 0.4038): -0.08196 ± 0.000813 kcal/mol
excess molar enthalpy ([3]; x2 = 0.4454): -0.08535 ± 0.000837 kcal/mol
excess molar enthalpy ([3]; x2 = 0.5066): -0.08855 ± 0.00086 kcal/mol
excess molar enthalpy ([3]; x2 = 0.5467): -0.08953 ± 0.000884 kcal/mol
excess molar enthalpy ([3]; x2 = 0.6056): -0.08855 ± 0.00086 kcal/mol
excess molar enthalpy ([3]; x2 = 0.6442): -0.0864 ± 0.00086 kcal/mol
excess molar enthalpy ([3]; x2 = 0.701): -0.0811 ± 0.000813 kcal/mol
excess molar enthalpy ([3]; x2 = 0.7566): -0.0746 ± 0.000765 kcal/mol
excess molar enthalpy ([3]; x2 = 0.811): -0.0636 ± 0.000693 kcal/mol
excess molar enthalpy ([3]; x2 = 0.8466): -0.0549 ± 0.000645 kcal/mol
excess molar enthalpy ([3]; x2 = 0.8991): -0.0402 ± 0.000574 kcal/mol
excess molar enthalpy ([3]; x2 = 0.9505): -0.0217 ± 0.000454 kcal/mol

From the NIST ThermoML archive (doi:10.1016/j.tca.2008.02.008)
